The values that follow come from a melting point compilation (Tetko et al.; mined from patent text by program, amines drawn as free bases though some values may be those of a salt).

One may read the melting point as the temperature of the solid-liquid transition.

Compound `CO[C@@H]1CCCC(c2ccc(C(=O)N3Cc4cccn4Cc4ccccc43)cc2C)=C1C` had a melting point of 127 to 128 °C. With `COC(=O)C1(C)Oc2ccc(Cl)cc2C(C)(c2ccccc2)O1` (configuration not stated), the melting point is 134 °C. As for `CCOC(=O)c1c(-c2ccccc2)n(C)c(-c2ccccc2)cc1=O`, the melting point was 177 to 179 °C. Take `Cn1c(=O)c2[nH]c(C=Cc3cccc(N)c3)nc2n(C)c1=O`: the melting point was over 300 °C. As for `ClCc1ccc(OCc2coc(/C=C/c3ccccc3)n2)cc1`, the figure is 116 to 117 °C. Take `CCCc1nc2c(N)nc3ccccc3c2n1CCCCCC(=O)NC`: the melting point lay within 158 to 159 °C. `CCCc1nc(C(C)(C)O)c(C(=O)OCc2oc(=O)oc2C)n1Cc1ccc(-c2ccccc2C(=O)O)cc1` had a melting point of 90 to 93 °C. `O=C1c2c(F)cc(F)c(F)c2C(=O)N1c1ccccc1` displayed a melting point of 183 to 185 °C. `COc1cc(NC(=S)C2(C)CCc3c(C)c(O)c(C)c(C)c3O2)cc(OC)c1OC` (configuration not stated) had a melting point of 147 to 148 °C. `CS(=O)(=O)c1ccc(-c2cc(CCCO)nn2CC2CCCCC2)cc1` showed a melting point of 94 to 95 °C. As for `CNC(=O)N(Cc1ccc(C(C)(C)C)cc1)NC(=O)OC(C)(C)C`, the melting point was in the range of 124 to 129 °C. In turn, `CCOC(=O)c1c(C)nc2c(c1Cl)c1ccccc1n2C` yielded a melting point of 123 to 124 °C. In turn, `CC(=O)C1CCC2C3CC=C4CCCCC4(C)C3CCC12C` (configuration not stated) had a melting point of 207 to 209 °C. In the case of `COc1cc(OC)c2c(c1)OC(C)(C)CC2=O`, the melting point lay in the range of 104 to 105 °C. For `CCCCCCCCCCc1cc(CCCCCCCCCC)cc(N(CC(=O)O)CC(=O)O)c1`, the melting point was in the range of 78 to 81 °C. Take `COc1ccc2c(c1)cc(Cc1cc3ccccc3n1S(=O)(=O)c1ccccc1)n2S(=O)(=O)c1ccccc1`: the melting point lay within 98 to 100 °C. `CC(C)C1(C)CC(O)C2(C)CCC3c4ccc(O)cc4CCC3C12` (configuration not stated) showed a melting point of 201 to 205 °C. As to `COc1cc2ncc(C#N)c(Nc3cccc(N(C)C)c3)c2cc1OC`, the melting point fell in the range of 246 to 249 °C. `N#Cc1cnc2cc3c(cc2c1Nc1ccc(Cl)cc1Cl)OCCN3` came in with a melting point of 254 to 255 °C. Then `CCOC(=O)C(C)OCc1cc2nc(Cl)ccc2n1S(=O)(=O)c1ccc2nc(N)sc2c1` (configuration not stated), with 86 to 88 °C; and `O=C1N(Cc2ccc(Cl)s2)c2ccccc2C12COc1cc3c(cc12)OCO3` (configuration not stated), with 145 to 146 °C; and `O=c1[nH]c2cc(Cl)ccc2c(O)c1Sc1ccc(O)cc1`, with over 300 °C. The compound `CCC1(CO)CS(=O)(=O)c2ccccc2C(c2ccccc2)=N1` (configuration not stated) registered a melting point of 170 to 171 °C. As for `OCCOCn1cc(I)c2c(Cl)ncnc21`, the figure is 154 to 155 °C; as for `O=C(c1ccc(-c2ccc(Cl)cc2)o1)N1CCN(c2cccc(Br)c2)CC1`, 130 °C; as for `CCCCCCCCCCCCn1c2cc(Br)ccc2c2ccc(Br)cc21`, 78 to 79 °C. In turn, `O=c1[nH]c2cc(F)ccc2c(=O)n1-c1ccccc1` displayed a melting point of 304 to 306 °C.

With `COc1cc(CCN(C)Cc2ccc(OC)c(OC)c2)ccc1NC(=O)c1cccc2c(=O)c3cccc(F)c3[nH]c12`, the melting point was in the range of 161 to 162 °C. Regarding `OCC1CNc2ncccc2O1` (configuration not stated), the melting point is 123 to 124 °C. Then `CS(=O)c1ccccc1-c1cc2[nH]c3ccc(O)cc3c2c2c1C(=O)NC2=O` (configuration not stated), with 321 to 323 °C; and `CCCCCCCCCCCCCCOC(=O)n1cc(-c2ccccc2)nc1O`, with 166 to 171 °C. The compound `Cc1oc(-c2ccccc2)nc1COc1cc(CO)ccn1` displayed a melting point of 100 to 101 °C. In the case of `CC(C)(C)OC(=O)N(Cc1csc2ccccc12)S(N)(=O)=O`, the melting point is 103 °C. `O=C(Nc1ccc(C(=O)N2Cc3cccn3Cc3ccccc32)cc1)c1cccnc1Oc1ccc(Cl)cc1` displayed a melting point of 211 to 212 °C. As for `O=C(O)CCc1nc(-c2ccccc2)nc2ccccc12`, the melting point was determined as 159 °C. `O=c1ccc2nc3ccccc3sc-2c1`: the melting point lay in the range of 157 to 159 °C. For the compound `CC(CCC(=O)O)(Sc1cc(C(C)(C)C)c(O)c(C(C)(C)C)c1)Sc1cc(C(C)(C)C)c(O)c(C(C)(C)C)c1`, the melting point is 90 to 92 °C. `O=C(Oc1ccccc1O)c1cc(Br)c(Cl)s1` showed a melting point of 145 to 147 °C. Then `O=C(O)c1ccc(NC(=O)c2ccc(Cl)cc2Cl)cc1Cl`, with 171 to 175 °C. Regarding `O=c1[nH]c(-c2ccc(Cl)c(Cl)c2)co1`, the melting point was in the range of 262 to 263 °C.

Consider `COc1ccc(N=C(C#CSc2ccccc2)N2CCN(C)CC2)cc1`, for which the melting point worked out at 160 °C. As for `Cc1nn(-c2ccc(Cl)c3c2CC(C)O3)c(=O)n1C(F)F` (configuration not stated), the figure is 78 to 79 °C. In turn, `Cc1ccsc1C(=COCCN1CCC[C@@H](C(=O)O)C1)c1sccc1C` displayed a melting point of 55 to 70 °C. Turning to `O=C(O)C1=Cc2cc(Cl)cc(C#CCCCCl)c2OC1C(F)(F)F` (configuration not stated), the melting point lay within 154 to 156 °C. On to `CCCOc1c2cc(F)c(F)cc2nc2c1c(C)nn2-c1ccccn1`, for which the melting point lay in the range of 162 to 163 °C. Take `CN1C(=O)C(NC(=O)NC23CC4CC(CC(C4)C2)C3)N=C(c2ccccc2)c2ccccc21` (configuration not stated): the melting point was 264 to 265 °C. In turn, `O=C(c1ccc2ccn(CCOc3ccc(CC(OCC(F)(F)F)C(=O)O)cc3)c2n1)C1CC1` (configuration not stated) displayed a melting point of 113 °C.

`COC(=O)C(C)(C)OCc1cc2cc(Cl)ccc2n1S(=O)(=O)c1ccc2c(c1)CCN2C(C)=O` came in with a melting point of 128 to 130 °C.

`CCCCNS(=O)(=O)CC(O)C(O)C(CC1CCCCC1)NC(=O)c1ccnnc1` (configuration not stated): the melting point lay within 170 to 172 °C.

For the compound `CC(C)n1nc(-c2sc(Nc3ccccn3)nc2-c2ccccc2)ccc1=O`, the melting point lay in the range of 194 to 195 °C. Turning to `COc1cn2nc(Cl)ccc2n1`, the melting point lay in the range of 134 to 136 °C. With `CCCN1CCCC1CNS(=O)(=O)c1ccc(Nc2ccnc3cc(Cl)ccc23)cc1` (configuration not stated), the melting point was 192 to 194 °C.

For `COc1ccc2c(c1)N(CCCN1CCC(CCO)CC1)c1cccc(SC)c1S2`, the melting point fell in the range of 101 to 103 °C. Consider `OC1(Cc2ccccc2F)CCCCCC1`, for which the melting point was in the range of 35 to 38 °C.

With `COC(=O)NC1CCc2c(ccc(OC)c2OC)C1` (configuration not stated), the melting point was 109 to 111 °C.

`Cc1cc(C)cc(C(=O)Cc2ccnc(NC(=O)OC(C)(C)C)c2)c1` gave a melting point of 133 to 136 °C.

Compound `CCN1C(=O)C2C3C=CC(CC3)C2(c2ccc(Cl)c(Cl)c2)C1=O` (configuration not stated) had a melting point of 122 to 126 °C. In turn, `Nc1c(CC(=O)O)cccc1S(=O)(=O)c1ccc(Cl)cc1` came in with a melting point of 139 to 141 °C. `O=C(/C=C/c1ccn(S(=O)(=O)c2ccc(-c3ccccn3)s2)c1)NO`: the melting point lay within 181 to 182 °C.

Take `COC(=O)CCc1ccc(N2CCCN(c3ccc(C#N)cc3)C2=O)cc1`: the melting point was 149 to 152 °C. In the case of `Cc1ccccc1C1SC2(CCN(C)CC2)c2ccccc21` (configuration not stated), the melting point was in the range of 132 to 134 °C. Then `CCOC(=O)C(Cc1ccc(C)c(OC(F)(F)C(F)F)c1)C(=O)c1ccc(F)cc1` (configuration not stated), with 52 to 53 °C; and `COc1cc(C)c(/C=C/c2nc3c([nH]2)c(=O)n(C)c(=O)n3C)cc1C`, with over 280 °C. Compound `CCOC(=O)CCCn1c(C(=O)NCc2nnc(C)n2-c2sc(CC)cc2C(=O)c2ccccc2Cl)cc2cc(F)ccc21` gave a melting point of 127 to 128 °C. For `Cc1ccc2nc(-c3ccccc3)cc(Cl)c2c1`, the melting point fell in the range of 90 to 93 °C.

Take `N[C@@H](CSCc1ccc(C(=O)O)cc1)C(=O)O`: the melting point was over 260 °C. Compound `COc1ccccc1N(CN1C(=O)CSC1=O)C(=O)CCl` returned a melting point of 188 to 191 °C. As for `CC(=O)N[C@@H](c1ccccc1)[C@@H](O)C(=O)OC(C)C`, the melting point is 104 to 106 °C.

`Cc1noc(NS(=O)(=O)c2ccccc2-c2ccc(-c3ncco3)cc2O)c1C` yielded a melting point of 111 to 115 °C.

Compound `NCCCn1cc(-c2cc3nccnc3[nH]2)c2ccccc21` registered a melting point of 170 °C. The compound `CSc1ccc(N)c(C(=O)O)c1` gave a melting point of 145 to 150 °C.

For `O=C1CN(c2ccc(Cl)cc2)C(=O)N1C(=O)c1c(Cl)cccc1Cl`, the melting point lay within 176 to 180 °C. `CC(Oc1ccc2nc(NC(=O)NCCC3CCN(C(=O)OC(C)(C)C)CC3)sc2c1)c1c(Cl)ccc(F)c1Cl` (configuration not stated) registered a melting point of 95 to 105 °C. On to `COC(=O)C=C(NC1C=CC=CC1(F)NC(=CC(=O)OC)C(=O)OC)C(=O)OC` (configuration not stated), for which the melting point fell in the range of 170 to 174 °C. Then `CCCCO/N=C(\C(=O)On1nnc2ccccc21)c1csc(NC(c2ccccc2)(c2ccccc2)c2ccccc2)n1`, with 100 to 102 °C; and `O=C1c2cc3nnn(CCC4CCCCC4)c(=O)c3cc2OC2CCCN12` (configuration not stated), with 170 °C. In the case of `CS(=O)(=O)c1c2ccccc2c(C=O)c2ccccc12`, the melting point was 216 to 217 °C. As for `CCn1cc(-c2ccccc2)nc(S(=O)(=O)Cc2ccc(Cl)cc2)c1=O`, the figure is 146 to 148 °C; as for `CN1C(=O)N(c2cc(Cl)cc(Cl)c2)C(=O)[C@]12CN(c1ccc(Cl)nn1)C[C@H]2c1ccc(C#N)cc1` (relative stereo), 125 °C; as for `COc1ccccc1N(CC(=O)N(C)c1ccccc1)C(=O)CNC(=O)Nc1cccc(C)c1`, 212 °C. With `CC(C)(c1ccc(Oc2cccc(N)c2)cc1)c1ccc(C(C)(C)c2ccc(Oc3cccc(N)c3)cc2)cc1`, the melting point lay in the range of 138 to 140 °C. Then `CC(C)(C)C1CSC2(CCC(C)(C(Cl)Cl)CC2)SC1` (configuration not stated), with 163 °C; and `O=C(O)CCC(=O)c1ccc2sc3ccccc3c2c1`, with 157 to 158 °C.

`NC(=O)C1CCC(NC(=O)NCc2ccc3c(c2)CN(C2CCC(=O)NC2=O)C3=O)CC1` (configuration not stated): the melting point is 195 to 197 °C. `Cn1c(I)nc2c(C(F)(F)F)nc(NCCc3ccccc3)nc21` gave a melting point of 139 to 142 °C. The compound `O=C1NCCN1C1CCN(CCC2COc3cc(Cl)c(Cl)cc3O2)CC1` (configuration not stated) yielded a melting point of 85 to 90 °C. `CCCCCCCCCCCCS(=O)(=O)Nc1cc(-c2nc3cc(Cl)c(Cl)cc3[nH]2)ccc1OC` returned a melting point of 203 to 204 °C.
